Laboratory results taken from patent US20230086703A1, “N-(4-(5-chloropyridin-3-yl)phenyl)-2-(2-(cyclopropanesulfonamido)pyrimidin-4-yl) butanamide derivatives and related compounds as human CTPS1 inhibitors for the treatment of proliferative diseases” (Step Pharma S.A.S., priority 2019, published 2023).
Like-named read-outs stand apart in the source and are kept apart here.

Molecular target: T1, human CTPS1 (Homo sapiens, UniProt P17812)
T1 construct: FLAG (with GG linker); His8 (with GG linker); purchased Proteros biostructures GmbH
T1 sequence (P17812 1-591): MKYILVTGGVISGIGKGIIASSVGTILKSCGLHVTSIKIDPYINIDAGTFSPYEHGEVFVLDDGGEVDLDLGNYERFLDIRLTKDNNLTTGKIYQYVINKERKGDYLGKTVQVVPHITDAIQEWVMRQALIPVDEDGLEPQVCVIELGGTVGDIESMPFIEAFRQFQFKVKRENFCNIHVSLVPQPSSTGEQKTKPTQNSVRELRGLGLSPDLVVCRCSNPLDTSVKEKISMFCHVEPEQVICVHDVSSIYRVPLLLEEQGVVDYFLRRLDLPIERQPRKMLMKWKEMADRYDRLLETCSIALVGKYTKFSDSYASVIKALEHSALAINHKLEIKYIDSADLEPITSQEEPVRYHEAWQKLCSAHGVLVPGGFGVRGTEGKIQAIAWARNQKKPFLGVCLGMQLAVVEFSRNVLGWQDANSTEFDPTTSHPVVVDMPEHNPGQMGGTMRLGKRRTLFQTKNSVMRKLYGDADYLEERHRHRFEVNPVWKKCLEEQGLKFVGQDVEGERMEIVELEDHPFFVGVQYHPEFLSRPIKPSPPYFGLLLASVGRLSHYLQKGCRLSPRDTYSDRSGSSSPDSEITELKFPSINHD
Assay: Human CTPS1 enzyme inhibition, ADP-Glo Max assay
Assay type: biochemical
Description: The enzyme inhibitory activities of compounds invented against the target of interest were determined using the ADP-Glo™ Max assay (Promega, UK). Assays for human CTPS1 were performed in 1× assay buffer containing 50 mM Tris, 10 mM MgCl2, 0.01% Tween-20, pH to 8.0 accordingly. Finally, immediately before use, L-cysteine was added to the 1× assay buffer to a final concentration of 2 mM. All reagents are from Sigma-Aldrich unless specified otherwise.
3× human CTPS1 protein was prepared in 1× assay buffer to the final working protein concentration required for the reaction. A 2 uL volume per well of 3× human CTPS1 protein was mixed with 2 uL per well of 3× test compound (compound prepared in 1× assay buffer to an appropriate final 3× compound concentration respective to the concentration response curve designed for the compounds under test) for 10 minutes at 25° C. […] ADP-Glo™ Max reagent was added for 60 minutes (6 μL per well) and subsequently ADP-Glo™ Max development reagent was added for 60 minutes (12 uL per well) prior to signal detection in a microplate reader (EnVision® Multilabel Reader, Perkin Elmer). Following each reagent addition over the course of the assay, assay plates were pulse centrifuged for 30 seconds at 500 rpm.
In all cases, the enzyme converts ATP to ADP and the ADP-Glo™ Max reagent subsequently depletes any remaining endogenous ATP in the reaction system. The ADP-Glo™ Max detection reagent converts the ADP that has been enzymatically produced back into ATP and using ATP as a substrate together with luciferin for the enzyme luciferase, light is generated which produces a detectable luminescence. […] The percentage inhibition produced by each concentration of compound was calculated using the equation shown below: […]

[1] = ADP-Glo Max assay, Table 10, read-out: Human CTPS1 Enzyme Inhibition, IC50 grouped by potency range (CTPS1)

Row | IC50 [1] | Compound | also measured
1 | < 0.1 µM | COc1cc(-c2cncc(C(F)(F)F)c2)ccc1NC(=O)C(C)(C)c1csc(NS(=O)(=O)C2CC2)n1 [T259, 2-(2-(cyclopropanesulfonamido)thiazol-4-yl)-N-(2-methoxy-4-(5-(trifluoromethyl)pyridin-3-yl)phenyl)-2-methylpropanamide] | –
2 | < 0.1 µM | Cc1cc(-c2cncc(F)c2)ccc1NC(=O)C(C)(C)c1csc(NS(=O)(=O)C2CC2)n1 [T287, 2-(2-(cyclopropanesulfonamido)thiazol-4-yl)-N-(4-(5-fluoropyridin-3-yl)-2-methylphenyl)-2-methylpropanamide] | –
3 | – | CCOc1cncc(-c2ccc(NC(=O)C3(c4ccnc(NS(=O)(=O)C5CC5)n4)CCN(C(=O)OC(C)(C)C)CC3)nc2)n1 [P139, tert-butyl 4-(2-(cyclopropanesulfonamido)pyrimidin-4-yl)-4-((5-(6-ethoxypyrazin-2-yl)pyridin-2-yl)carbamoyl)piperidine-1-carboxylate] | IC50 (ADP-Glo Max assay, human full length CTPS1, read-out: CTPS1 (Human CTPS1 Enzyme Inhibition data grouped by potency range, IC50)): < 0.1 µM
4 | 0.1 to 1 µM | O=C(Cc1csc(NS(=O)(=O)C2CC2)n1)Nc1ccc(-c2cncnc2)cn1 [T64, 2-(2-(cyclopropanesulfonamido)thiazol-4-yl)-N-(5-(pyrimidin-5-yl)pyridin-2-yl)acetamide] | –
5 | 0.1 to 1 µM | CCC(C(=O)Nc1ccc(-c2cccnc2)cn1)c1csc(NS(=O)(=O)C2CC2)n1 (stereo not drawn) [T62, N-([3,3′-bipyridin]-6-yl)-2-(2-(cyclopropanesulfonamido)thiazol-4-yl)butanamide] | –
6 | 1 to 10 µM | COc1ccnc(-c2ccc(NC(=O)C(C)(C)c3csc(NS(=O)(=O)C4CC4)n3)cc2)c1 [T271, 2-(2-(cyclopropanesulfonamido)thiazol-4-yl)-N-(4-(4-methoxypyridin-2-yl)phenyl)-2-methylpropanamide] | –
7 | 1 to 10 µM | Cc1ccc(-c2ccc(NC(=O)Cc3csc(NS(=O)(=O)C4CC4)n3)cc2)cn1 [T101, 2-(2-(cyclopropanesulfonamido)thiazol-4-yl)-N-(4-(6-methylpyridin-3-yl)phenyl)acetamide] | –
8 | 0.1 to 1 µM | CC(C)(C(=O)Nc1ccc(-c2cncc(C(F)(F)F)n2)cc1)c1csc(NS(=O)(=O)C2CCC2)n1 [T308, 2-(2-(cyclobutanesulfonamido)thiazol-4-yl)-2-methyl-N-(4-(6-(trifluoromethyl)pyrazin-2-yl)phenyl)propanamide] | –
9 | 1 to 10 µM | COc1ccc(-c2ccc(NC(=O)Cc3csc(NS(=O)(=O)C4CC4)n3)cc2)cn1 [T260, 2-(2-(cyclopropanesulfonamido)thiazol-4-yl)-N-(4-(6-methoxypyridin-3-yl)phenyl)acetamide] | –
10 | 1 to 10 µM | CN(C(=O)C(C)(C)c1csc(NS(=O)(=O)C2CC2)n1)c1ccc(-c2cncc(C(F)(F)F)n2)cc1 [T310, 2-(2-(cyclopropanesulfonamido)thiazol-4-yl)-N,2-dimethyl-N-(4-(6-(trifluoromethyl)pyrazin-2-yl)phenyl)propanamide] | –
11 | 1 to 10 µM | COc1cc(OC)cc(-c2ccc(NC(=O)C(C)(C)c3csc(NS(=O)(=O)C4CC4)n3)nc2)c1 [T234, 2-(2-(cyclopropanesulfonamido)thiazol-4-yl)-N-(5-(3,5-dimethoxyphenyl)pyridin-2-yl)-2-methylpropanamide] | –
12 | < 0.1 µM | COc1cncc(-c2ccc(NC(=O)C(C)(C)c3csc(NS(=O)(=O)C4CC4)n3)c(OC)c2)c1 [T50, 2-(2-(cyclopropanesulfonamido)thiazol-4-yl)-N-(2-methoxy-4-(5-methoxypyridin-3-yl)phenyl)-2-methylpropanamide] | –
13 | 1 to 10 µM | Cc1ccc(-c2ccc(NC(=O)C(C)(C)c3csc(NS(=O)(=O)C4CC4)n3)cc2)cn1 [T105, 2-(2-(cyclopropanesulfonamido)thiazol-4-yl)-2-methyl-N-(4-(6-methylpyridin-3-yl)phenyl)propanamide] | –
14 | 0.1 to 1 µM | CC(C)(C(=O)Nc1ccc(-c2cncc(Cl)c2)cc1)c1csc(NS(=O)(=O)C2(C)CC2)n1 [T300, N-(4-(5-chloropyridin-3-yl)phenyl)-2-methyl-2-(2-((1-methylcyclopropane)-1-sulfonamido)thiazol-4-yl)propanamide] | –
15 | < 0.1 µM | C#Cc1cncc(-c2ccc(NC(=O)C(C)(C)c3csc(NS(=O)(=O)C4CC4)n3)cc2)n1 [T136, 2-(2-(cyclopropanesulfonamido)thiazol-4-yl)-N-(4-(6-ethynylpyrazin-2-yl)phenyl)-2-methylpropanamide] | –
16 | 0.1 to 1 µM | COc1cc(-c2cncc(C)c2)ccc1NC(=O)C(C)(C)c1csc(NS(=O)(=O)C2CC2)n1 [T258, 2-(2-(cyclopropanesulfonamido)thiazol-4-yl)-N-(2-methoxy-4-(5-methylpyridin-3-yl)phenyl)-2-methylpropanamide] | –
17 | 0.1 to 1 µM | Cc1ncc(Cl)nc1-c1ccc(NC(=O)C(C)(C)c2csc(NS(=O)(=O)C3CC3)n2)cc1 [T276, N-(4-(6-chloro-3-methylpyrazin-2-yl)phenyl)-2-(2-(cyclopropanesulfonamido)thiazol-4-yl)-2-methylpropanamide] | –
18 | < 0.1 µM | CC(C)(C(=O)Nc1ncc(-c2cncc(Cl)c2)cc1F)c1csc(NS(=O)(=O)C2CC2)n1 [T229, N-(5′-chloro-5-fluoro-[3,3′-bipyridin]-6-yl)-2-(2-(cyclopropanesulfonamido)thiazol-4-yl)-2-methylpropanamide] | –
19 | 1 to 10 µM | CC(C)S(=O)(=O)Nc1nc(C(C)(C)C(=O)Nc2ccc(-c3cccnc3)cc2)cs1 [T297, 2-methyl-2-(2-((1-methylethyl)sulfonamido)thiazol-4-yl)-N-(4-(pyridin-3-yl)phenyl)propanamide] | –
20 | – | CCOc1cncc(-c2ccc(NC(=O)C3(c4ccnc(NS(=O)(=O)C5CC5)n4)CCC(N(C)CC(F)F)CC3)nc2)n1 (stereo not drawn) [P310] | IC50 (Table 12, ADP-Glo Max assay, read-out: CTPS1 (Human CTPS1 Enzyme Inhibition data grouped by potency range)): < 0.1 µM
21 | 0.1 to 1 µM | CC(C)(C(=O)Nc1ccc(-c2cncc(C(F)(F)F)n2)cc1F)c1csc(NS(=O)(=O)CC2CC2)n1 [T430, 2-(2-((cyclopropylmethyl)sulfonamido)thiazol-4-yl)-N-(2-fluoro-4-(6-(trifluoromethyl)pyrazin-2-yl)phenyl)-2-methylpropanamide] | –
22 | < 0.1 µM | COC(C(=O)Nc1ccc(-c2cncc(C(F)(F)F)n2)cc1F)c1csc(NS(=O)(=O)C2CC2)n1 (single isomer, unassigned) [T459, 2-(2-(cyclopropanesulfonamido)thiazol-4-yl)-N-(2-fluoro-4-(6-(trifluoromethyl)pyrazin-2-yl)phenyl)-2-methoxyacetamide] | –
23 | < 0.1 µM | COC(C(=O)Nc1ccc(-c2cncc(C(F)(F)F)n2)cc1F)c1csc(NS(=O)(=O)C2CC2)n1 (single isomer, unassigned) [T458, 2-(2-(cyclopropanesulfonamido)thiazol-4-yl)-N-(2-fluoro-4-(6-(trifluoromethyl)pyrazin-2-yl)phenyl)-2-methoxyacetamide] | –
24 | < 0.1 µM | CCOc1cncc(-c2ccc(NC(=O)C(C)(C)c3csc(NS(=O)(=O)C4CCC4)n3)cc2)n1 [T307, 2-(2-(cyclobutanesulfonamido)thiazol-4-yl)-N-(4-(6-ethoxypyrazin-2-yl)phenyl)-2-methylpropanamide] | –
25 | < 0.1 µM | Cc1cc(-c2cncc(C#N)c2)ccc1NC(=O)C(C)(C)c1csc(NS(=O)(=O)C2CC2)n1 [T286, N-(4-(5-cyanopyridin-3-yl)-2-methylphenyl)-2-(2-(cyclopropanesulfonamido)thiazol-4-yl)-2-methylpropanamide] | –
26 | < 0.1 µM | COc1cncc(-c2ccc(NC(=O)C(OC)c3csc(NS(=O)(=O)C4CC4)n3)cc2)n1 (single isomer, unassigned) [T107, 2-(2-(cyclopropanesulfonamido)thiazol-4-yl)-2-methoxy-N-(4-(6-methoxypyrazin-2-yl)phenyl)acetamide] | –

Row | Compound | IC50 [1] | also measured
27 | CC(C)(C(=O)Nc1ccc(-c2cncc(OC3CCC3)n2)cn1)c1csc(NS(=O)(=O)C2CC2)n1 [T141, N-(5-(6-cyclobutoxypyrazin-2-yl)pyridin-2-yl)-2-(2-(cyclopropanesulfonamido)thiazol-4-yl)-2-methylpropanamide] | 0.1 to 1 µM | –
